Legend:
Huh7 cells = assay: MTT assay, liver cancer growth inhibition / cell death; assay type: cell-based; details: 48 hours
Procedure: Hepatoma cell proliferation inhibitory efficacies of the Ulmi cortex extract (WSY-0), Nardostachys jatamansi extract (WSY-1), Lophatheri Herba extract (WSY-3) and Torilis japonica extract (WSY-37) in target cells or mice treated with the same were validated by MTT assay and effective concentrations thereof were determined.
In vitro liver cancer growth inhibitory abilities of four (4) natural products (WSY-0, WSY-1, WSY-3, and WSY-37) were verified by the MTT assay.
With respect to the 4 types of natural products, total 8 types of extracts were prepared through hydrothermal extraction and ethanol extraction, respectively. These extracts were identified to have in vitro liver cancer growth inhibitory ability in 5 types of liver cancer cell lines (Huh7, HepG2, Hep3B, PLC/PRF5, and SK-hep1).
Further, in treatment using each of three ethanol extracts in an amount of 200 μg/mL except WSY-37, the cell growth inhibitory ability was identified in 4 types of liver cancer cell lines except Hep G2 cells.
When treating Huh7 cells with sorafenib for 48 hours, it was identified that about 60% cell death was induced with 2 μM of sorafenib and about 80% cell death was induced with 4 μM of sorefenib, respectively (see FIG. 1).

HCCLM3 cells = assay: Cell death in hyper-metastatic HCC cell line; assay type: cell-based; details: HCCLM3, 16 μM, 48 hours
Excerpt: By treatment of HCCLM3 cells using WSY-1 or WSY-3 extract in ethanol to identify cell death effects, in vitro anti-cancer effects of the natural extracts on cell lines having different sorafenib sensitivities were investigated.

[1] = test system: HCCLM3 hepatocellular carcinoma; assay: Orthotopic HCC model, HCCLM3 via liver portal vein; assay type: in vivo, Balb/c nu/nu mouse; details: 30 mpk oral daily, 8 weeks
Excerpt: Establishment of Hepatocellular Carcinoma (HCC) in Small Animal Models
In order to induce HCC in a small animal model, a method of injecting chemicals such as DEN or a method of directly injecting HCC cells into the model is used. Although DEN treatment is convenient in view of experiment, this process entails a disadvantage in that a long period of time (about 50 weeks) is required for generation of tumors (‘tumorigenesis’). Therefore, in order to efficiently verify in vivo anticancer effects of natural extracts for a short period of time, an orthotopic implantation model of directly injecting HCC cells into the liver of a mouse was implemented.
The orthotopic implantation model is a method of inducing formation of cancer in liver tissues by directly injecting HCC cell lines such as Huh7 or HCCLM3 into hepatic portal vein or mesenchyma (liver lobe) of the mouse, and takes about 8 weeks to form tumors, which is considerably shorter than DEN, thus being properly used.
Efficacies of the Ulmi cortex extract (WSY-0), Nardostachys jatamansi extract (WSY-1), Lophatheri Herba extract (WSY-3) or Torilis Japonica extract (WSY-37) on HCC formation and suppression thereof have been validated through liver gross, H & E staining and serum analysis. […]

[2] = test system: Hepa1-6 hepatocellular carcinoma; assay: Orthotopic HCC model, Hepa1-6 via liver portal vein; assay type: in vivo, C57/BL6 mouse; details: WSY-1 100 mpk, sorafenib 30 mpk, oral daily
Procedure: In the present study, based on results of the primary in vivo efficacy validation experiment and preliminary experiment, the following experiment conditions were set up and the secondary validation experiment was implemented.
Administered cell/administration route: 5×10^5 Hepa1-6-GFP cells/liver portal vein
Dose/administration route/dosing frequency: WSY-1 100 mpk, sorafenib 30 mpk/oral administration/daily
5×10^5 Hepa1-6GFP cells were administered to the liver portal vein of each 6-week-old C57/BL6 mouse. 3 days later, the mice were randomly grouped, followed by administration of WSY-1 and sorafenib for 3 weeks.
During 3 weeks administration period, death (mortality) due to tumorigenesis was induced in the following experimental groups. After termination of the administration, survived mice were sacrificed and analyzed for anti-cancer effects.

liver cancer = details: cited from earlier work

## CNC(=O)c1cc(Oc2ccc(NC(=O)Nc3ccc(Cl)c(C(F)(F)F)c3)cc2)ccn1 [sorafenib]
Huh7 cells; Huh7, 2 μM
  cell death: about 60%
Huh7 cells; Huh7, 4 μM
  cell death: about 80%
HCCLM3 cells
  apoptotic effects: ≤ 50%
[1]
  liver weight/body weight vs mice with HCCLM3 only: decreased
[2]; 3 weeks administration
  death (mortality) due to tumorigenesis: 4 out of 13
[2]; 3 weeks
  liver weight/body weight vs mice injected with Hepa1-6 cells only: significantly decreased
Liver cancer; 137 patients, Phase 2 clinical trials
  patients with partial response: ≤ 5%
Liver cancer; orally administered
  extension of life compared to placebo dose group: ~3 months

Source: patent publication US20190314436A1, “PHARMACEUTICAL COMPOSITION FOR PREVENTION OR TREATMENT OF LIVER CANCER AND HEALTH FUNCTIONAL FOOD” (KOREA BIO MEDICAL SCIENCE INSTITUTE CO., LTD, priority 2016, published 2019)
